Assay results as given in PubChem BioAssay AID1418 (Emory University Molecular Libraries Screening Center, 2008).
Activity calls are given as the source filed them. No rule for the calls is given here.

biological target: Induced myeloid leukemia cell differentiation protein Mcl-1 (Homo sapiens) (UniProt Q07820); experiment: blockers of Bid binding to Mcl-1 – biochemical, TR-FRET, dose response (AID 1418); settings: Mcl-1/Bid peptide binding, TR-FRET (europium/Dy647), 2 hr
Sequence (Q07820 whole entry, looked up): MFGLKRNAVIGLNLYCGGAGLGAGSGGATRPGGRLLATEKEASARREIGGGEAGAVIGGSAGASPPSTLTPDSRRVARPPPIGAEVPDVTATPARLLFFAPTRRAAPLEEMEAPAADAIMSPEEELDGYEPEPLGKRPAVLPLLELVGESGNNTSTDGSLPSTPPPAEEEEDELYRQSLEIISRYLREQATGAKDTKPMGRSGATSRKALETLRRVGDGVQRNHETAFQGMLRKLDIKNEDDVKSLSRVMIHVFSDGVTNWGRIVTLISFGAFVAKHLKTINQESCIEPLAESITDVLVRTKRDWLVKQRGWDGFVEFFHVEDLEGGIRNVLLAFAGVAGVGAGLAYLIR

SMILES	IC50
CCN(CC)c1ccc2cc(-c3nc4ccccc4[nH]3)c(=O)oc2c1	1.62 µM
Cn1c(SCC(=O)N=Nc2c(O)[nH]c3ccccc23)nc2ccccc21	> 54 µM (inactive)
CN1C(=O)/C(=C2\SC(=S)N(CCCCCC(=O)O)C2=O)c2ccccc21	29.4 µM
CCOc1ccc(-c2ccc(/C=C3/C(=N)N4C(C)=CSC4=NC3=O)o2)c([N+](=O)[O-])c1	0.83 µM
CCOC(=O)c1sc2nc3c(SCCC(=O)O)cc(C(=O)c4cc(OC)ccc4O)cn3c(=O)c2c1C	1.66 µM
O=C(O)[C@H](Cc1ccccc1)N1Cc2ccccc2C1=O	22.3 µM
O=[N+]([O-])c1ccc(N/N=C/c2cn(Cc3ccc(F)cc3)c3ccccc23)nc1	> 54 µM (inactive)
COc1cc(/C=C2\SC(=O)N(c3ccc(Cl)cc3)C2=O)cc([N+](=O)[O-])c1O	1.58 µM
CCOc1c(C(N)=O)c(-c2ccccc2)c2c(=O)[nH]c3ccccc3n12	> 54 µM (inactive)
O=c1c(CN2CCN(Cc3ccccc3)CC2)coc2ccc(Cl)cc12	> 54 µM (inactive)
CCOc1ccc(-c2ccc(/C=C3/C(=N)N4C=CSC4=NC3=O)o2)c([N+](=O)[O-])c1	0.86 µM
COCC(O)CSc1nc(C)[nH]c1[N+](=O)[O-] (configuration not stated)	> 54 µM (inactive)
c1ccc(Oc2nc3ccccc3n3cccc23)cc1	> 54 µM (inactive)
C#CCOCCOCCOCCNc1nc(N2CCN(C(=O)[C@H](Cc3cc4ccccc4[nH]3)n3cc([C@@H](N)CC(C)C)nn3)CC2)nc(N2CCN(C(=O)[C@H](Cc3cc4ccccc4[nH]3)n3cc([C@@H](N)CC(C)C)nn3)CC2)n1	24.2 µM
CN(C1=NC(=O)CS1)c1ccc(O)cc1	> 54 µM (inactive)
O=C(O)c1cccc(-n2cccc2/C=C2/NC(=O)N(c3ccc(Cl)cc3)C2=O)c1	0.53 µM
COc1cc(/C=N/NC(=O)c2ccc(CN3c4cccc5cccc(c45)S3(=O)=O)cc2)cc(OC)c1O	1.41 µM
CC(C)(C)c1cc(-c2csc(Nc3ccccc3)[n+]2Cc2ccc(C(=O)O)cc2)cc(C(C)(C)C)c1O	0.66 µM
Cc1ccc(Nc2cc(=O)n(C3CCCCC3)c(=O)[nH]2)cc1C	> 54 µM (inactive)
COc1ccc2[nH]c(=O)c(CNC3CCCCC3)cc2c1	> 54 µM (inactive)
Nc1c(C(=O)NCC2CCCO2)sc2nc3c(c(-c4ccco4)c12)CC/C3=C\c1ccco1 (configuration not stated)	> 54 µM (inactive)
CC(C)CN(CC(C)C)C(=S)NC1CCCCC1	> 54 µM (inactive)
CC1=NOC(=O)/C1=C/c1ccc(-c2ccc(Cl)cc2)o1	8.87 µM
C=CCOC(=O)/C(=C/c1ccco1)NC(=O)/C=C/c1ccccc1	> 54 µM (inactive)
C/C(=N\Nc1cccc(C(=O)O)c1)c1ccc2c(c1)Nc1ccccc1S2	0.76 µM

SMILES	IC50
O=C(CCN1C(=O)/C(=C/c2cccc(Br)c2)SC1=S)NNC(=O)c1cccnc1	4.52 µM
CCOc1ccccc1Nc1nc(-c2sc(NC(=O)c3ccc([N+](=O)[O-])cc3)nc2C)cs1	1.37 µM
O=C1NC(=S)N(C2CC2)C(=O)/C1=C/c1ccc2c(c1)CCN2CCCCl	0.66 µM
CCCCN(Cc1cc2ccccc2[nH]c1=O)S(C)(=O)=O	> 54 µM (inactive)
O=[N+]([O-])c1ccc(-c2nc3ccc([N+](=O)[O-])cc3[nH]2)cc1	13 µM
COC(=O)c1sccc1NC(=O)c1cc(C)on1	> 54 µM (inactive)
Cc1ccc(-c2nc(CS(=O)CC(=O)N3CCC4(CC3)OCCO4)c(C)o2)cc1 (configuration not stated)	> 54 µM (inactive)
O=c1c(C(c2ccccc2)c2c(O)sc3ccccc3c2=O)c(O)sc2ccccc12	10.6 µM
CCCN1CCC(NC(=S)Nc2ccc(C(=O)OCC)cc2)CC1	> 54 µM (inactive)
CC(Sc1nnc2c(n1)C1CCC2(C)C1(C)C)C(=O)Nc1ccccc1 (configuration not stated)	> 54 µM (inactive)
COc1ccc(-n2c(=O)cc(N3CCOCC3)[nH]c2=O)cc1	> 54 µM (inactive)
C=C1C(=O)[C@@]23[C@H](O)C[C@@H]4C(C)(C)CC[C@H](O)[C@]4(C)[C@@H]2C[C@H](O)[C@@H]1[C@H]3O	> 54 µM (inactive)
COc1cc(/C=C2/SC(N)=NC2=O)ccc1Oc1ccc([N+](=O)[O-])cc1[N+](=O)[O-]	3.5 µM
COc1ccc(CN2C(=O)c3cccnc3C2Nc2cc(Cl)c(OC)cc2OC)cc1 (configuration not stated)	0.84 µM
Cc1nnc(Sc2c(N)n(C)c(=O)[nH]c2=O)s1	> 54 µM (inactive)
COc1ccccc1CCc1nnc(CCC(=O)NC(C)Cc2cccnc2)o1 (configuration not stated)	> 54 µM (inactive)
O=C(Cn1nnc(-c2ccccc2NC(=O)c2cccs2)n1)Nc1ccccc1	> 54 µM (inactive)
CCCCCC#CCC#CCC#CCC#CCCCC(=O)O	1.78 µM
CCOC(=O)NC(=O)/C(C#N)=C/c1ccc(N(C)C)cc1	> 54 µM (inactive)
c1ccc(CSc2nnc(-c3ccco3)c(-c3ccco3)n2)cc1	10.2 µM
O=S(=O)(Nc1cccc(-c2cn3ccsc3n2)c1)c1ccc(F)cc1	> 54 µM (inactive)
COc1cc(OC)cc(C(=O)N2CCN(Cc3ccccc3C(F)(F)F)CC2)c1	inactive
O=C1CSC(c2ccncc2)N1Cc1ccccc1 (configuration not stated)	> 54 µM (inactive)
COc1ccc(NC(=O)c2cc(C3CC3)on2)c(OC)c1	> 54 µM (inactive)
CCNC(=O)c1cc(S(=O)(=O)N(C)C)c(Cl)cc1Cl	> 54 µM (inactive)

SMILES	IC50
CCSC1=NC2(CCCCC2)Nc2sc3c(c21)CCCC3	0.44 µM
CN(CCN(C)C(C)(C)C)C(=O)C(c1ccccc1)c1ccccc1	> 54 µM (inactive)
Cc1cccc(NC(=O)C2CCN(c3nc(C)cc(C)n3)CC2)c1	> 54 µM (inactive)
NC(=S)n1[nH]c(-c2ccc([N+](=O)[O-])cc2)c(N=Nc2cccc(Cl)c2)c1=O	0.68 µM
CC1=NOC(=O)/C1=C\c1ccc(-c2ccc(Cl)cc2Cl)o1	1.94 µM
COc1cc(/C=N/Nc2nnc3c(n2)[nH]c2ccccc23)ccc1O	2.66 µM
O=C(Oc1ccc(Nc2ncnc3ccccc23)cc1)c1cccnc1	> 54 µM (inactive)
Cc1ccc(C)c(OCC(=O)Nc2ccc3c(c2)OCO3)c1C	> 54 µM (inactive)
COc1cc(/C=C2\SC(=O)N(Cc3ccc(Cl)cc3)C2=O)cc([N+](=O)[O-])c1O	16.9 µM
C#Cc1ccc([C@@H]2C=C(C(=O)N3CCN(Cc4ccc5c(c4)OCO5)CC3)O[C@H](OCCCCO)C2)cc1	> 54 µM (inactive)
COc1ccc(C)cc1S(=O)(=O)N(C)CC(=O)NCc1ccco1	> 54 µM (inactive)
Cc1cccc(N2CCN(C(=O)Cc3ccc(-n4c(=O)[nH]c5ccsc5c4=O)cc3)CC2C)c1 (configuration not stated)	> 54 µM (inactive)
O=C(CSc1nnc2scc(-c3ccccc3)n12)N1CCN(Cc2ccccc2)CC1	> 54 µM (inactive)
O=C(CSc1nccc(=O)[nH]1)c1ccccc1Br	> 54 µM (inactive)
CCN(CC)CCNC(=O)/C(=C/c1cn(C)c2ccccc12)NC(=O)c1ccc(OC)c(OC)c1	> 54 µM (inactive)
CCc1cccc(CC)c1NC(=S)N1CCn2cccc2C1c1cccnc1 (configuration not stated)	> 54 µM (inactive)
COc1cc(-c2ccc(Nc3ccccc3C(=O)O)c(OC)c2)ccc1Nc1ccccc1C(=O)O	0.85 µM
Cc1occc1C(=O)NNC(=O)Nc1ccc([N+](=O)[O-])cc1	> 54 µM (inactive)
O=C(N/N=C/c1ccncc1)c1cccc(S(=O)(=O)Nc2ccc(Cl)cc2)c1	2.24 µM
O=C1Nc2ccc(Br)cc2/C1=C/C(=O)c1ccc2c(c1)OCO2	1.93 µM
COC(=O)CSc1nc(C)c(C)c(C)c1C(N)=O	> 54 µM (inactive)
COc1ccc(CN2C(=O)c3cccnc3C2O)cc1 (configuration not stated)	0.71 µM
Cc1sc(NC(=O)c2cc(-c3ccc(Cl)cc3)nc3ccccc23)c(C(N)=O)c1C	0.92 µM
O=C(O)CCN1C(=O)/C(=C\c2ccc(-c3nc4ccccc4s3)o2)SC1=S	0.57 µM
C#CCOCCOCCOCCNc1nc(N2CCN(C(=O)[C@H](Cc3cc4ccccc4[nH]3)n3cc([C@@H](N)C(C)CC)nn3)CC2)nc(N2CCN(C(=O)[C@H](Cc3cc4ccccc4[nH]3)n3cc([C@@H](N)Cc4ccc(O)cc4)nn3)CC2)n1 (some centres not stated)	> 54 µM (inactive)

SMILES	IC50
CCCCN1C(=O)/C(=C/C=C/c2ccco2)C(=O)NC1=S	8.35 µM
C=CCNCCCOc1ccc(Cl)cc1Br	> 54 µM (inactive)
CCOC(=O)c1cc(-c2ccccc2)n(CC(=O)N2CCCC2)c1C	> 54 µM (inactive)
CCN1/C(=C\C=C2\C(=O)N(c3ccccc3)C(=S)N2C)Sc2ccccc21	2.97 µM
CCOc1ccc(-c2csc3ncn(-c4ccc(OC)cc4)c(=O)c23)cc1	> 54 µM (inactive)
COc1ccc(N=Nc2ccc(O)c3ncccc23)cc1	15.1 µM
CS(=O)(=O)NCc1ccc(C(=O)NCCOc2ccccc2)cc1	> 54 µM (inactive)
COCCN1Cc2cccc(C(=O)Nc3cccc(C)c3C)c2C1=O	> 54 µM (inactive)
CC(NC(=O)Cn1cnc2c1c(=O)n(C)c(=O)n2C)c1ccccc1 (configuration not stated)	> 54 µM (inactive)
COc1cc(OC)cc(C(=O)N[C@H](C(=O)OCC(=O)NC(=O)c2cccn2C)C(C)C)c1	> 54 µM (inactive)
Brc1ccccc1	> 54 µM (inactive)
c1coc(-c2nc3c4c5c(sc4ncn3n2)CCCC5)c1	> 54 µM (inactive)
CCOC(=O)c1c2ccc(OCC(=O)N/N=C/c3ccc(C)cc3)cc2n2ccccc12	6.23 µM
C=CCn1c(O)c(C(C)=NCC2CCCO2)c(=O)[nH]c1=O (configuration not stated)	0.48 µM
CCCCOc1ccc(CC2C(=O)N(C)C(=O)N(C)C2=O)cc1	> 54 µM (inactive)
Cc1ccc(NC(=O)C(=O)NCc2ccc(/C=C(/C#N)C(=O)NCc3cccnc3)o2)cc1C	> 54 µM (inactive)
CCCCSc1cc(C)nc(N)n1	> 54 µM (inactive)
Cc1c([N+](=O)[O-])c(C(=O)Nc2ccc3c(c2)OCCO3)nn1C	> 54 µM (inactive)
O=C(Oc1cccc(N2C(=O)C3C4c5ccccc5C(c5ccccc54)C3C2=O)c1)c1ccco1 (configuration not stated)	> 54 µM (inactive)
O=C(/C=C\Nc1ccc(S(=O)(=O)Nc2ncccn2)cc1)c1cccc2ccccc12	> 54 µM (inactive)
Cc1cccc2c3nc4ccccc4nc3n(CCCN3C(=O)c4ccccc4C3=O)c12	> 54 µM (inactive)
Cc1occc1C(=O)N/N=C/c1ccc(N(C)C)cc1	> 54 µM (inactive)
